Legend:
[1] = system: adult subjects with moderate to severe AA; assay: Phase III trial: Hair Quality Patient Reported Outcome (QPRO); type: in vivo, human; settings: Weeks 12, 16, 20, and 24
Protocol: (§1) A Phase III trial was conducted to assess the efficacy and safety of CTP-543 in adult subjects with moderate to severe AA. Approximately 440 adult male and female subjects 18 to 65 years of age, inclusive, with moderate to severe AA participated in the study. Subjects with definitive diagnosis of AA, and at least 50% hair loss, as defined by a SALT score ≥50, who met all of the inclusion criteria and none of the exclusion criteria participated in the study.
(§2) The Screening Period lasted up to 28 days prior to initiation of study drug. […] Randomization was stratified by scalp hair loss into 1 of the following 2 categories: 1) partial scalp hair loss (SALT ≥50 and <95), 2) complete or near complete scalp hair loss (SALT ≥95).
(§3) Additional secondary efficacy endpoints included the following: • Relative change in SALT scores from baseline at Weeks 4, 8, 12, 16, 20, and 24. • Percentage of responders (defined as “much improved” or “very much improved”) using the Clinical Global Impression of Improvement (CGI-I) at Weeks 12, 16, 20, and 24. • Percentage of responders (defined as “much improved” or “very much improved”) using the Patient Global Impression of Improvement (PGI-I) at Weeks 12, 16, 20, and 24. • Change from baseline in the Clinical Global Impression of Severity (CGI-S) at Weeks 12, 16, 20, and 24. • Change from baseline in the Patient Global Impression of Severity (PGI-S) at Weeks 12, 16, 20, and 24. • Change from baseline on the Brigham Eyebrow Tool for Alopecia (BETA) score at Weeks 12 and 24. • Change from baseline on the Brigham Eyelash Tool for Alopecia (BELA) score at Weeks 12 and 24. • Percentage of subjects achieving at least a 75% relative reduction in SALT score from baseline at Weeks 12 and 24. • Percentage of subjects achieving at least a 90% relative reduction in SALT score from baseline at Weeks 12 and 24. • Percentage of responders (defined as “satisfied” or “very satisfied”) on the SPRO scale at Weeks 12, 16, and 20. • Change from baseline in the SPRO scale at Weeks 12, 16, 20, and 24. • Percentage of subjects achieving a ≥2-point change from baseline in the SPRO scale at Weeks 12, 16, 20, and 24. • Change from baseline on the individual items of the Hair Quality Patient Reported Outcome (QPRO) scale at Weeks 12, 16, 20, and 24. • Change from baseline in the depression scale of the Hospital Anxiety and Depression Scale (HADS) at Week 24. • Change from baseline in the anxiety scale of the HADS at Week 24. • Percentage of subjects achieving an absolute SALT score of ≤20 at Week 4. • Percentage of subjects achieving an absolute SALT score of ≤10 at Week 24
The individual items of satisfaction with thickness of hair coverage, satisfaction with evenness of hair coverage, satisfaction with eyebrows, and satisfaction with eyelashes are rated on a scale of 1 to 5. A decrease from baseline in the QPRO score represents improvement. For each item and time point, treatment group differences favored CTP-543 over placebo.

[2] = system: adult subjects with moderate to severe AA; assay: Phase III trial: Hospital Anxiety and Depression Scale (HADS); type: in vivo, human; settings: for HADS anxiety scale, LS mean change from baseline / HADS anxiety scale, LS mean treatment group difference from placebo / HADS depression scale, LS mean change from baseline / HADS depression scale, LS mean treatment group difference from placebo: Week 24
Source text: The Hospital Anxiety and Depression Scale (HADS) is used to measure anxiety and depression in a general medical population of subjects. HADS comprises of 14 items (7 items each for anxiety and depression), with a score ranging between 0 and 21 for the anxiety and depression subscales. Scores between 8 and 10 indicate a moderate presence of symptoms of anxiety and depression, whereas a score greater than 11 indicates a significant number of symptoms of anxiety and depression that likely correspond with a clinical diagnosis. The total HADS score may be regarded as a global measure of psychological distress (Roberts et al, 2001; Johnston et al, 2000). A negative change in a subject's HADS score from a starting timepoint to an end point during treatment, e.g. from baseline to Week 24 of treatment, indicates an improvement in symptoms of anxiety and depression. The HADS questionnaire was completed by subjects at baseline and Week 24. The term “baseline” as used herein refers to the HADS score (or HADS-A or HADS-D score) determined before administration of Compound (I).
as §1, with “Approximately” for “A Phase III trial was conducted to assess the efficacy and safety of CTP-543 in adult subjects with moderate to severe AA. Approximately”
as §2, §3
Changes from baseline to Week 24 in the depression scale of subjects who were randomized to treatment with deuruxolitinib 8 mg twice daily (BID), deuruxolitinib 12 mg BID, or placebo for 24 weeks were measured. Subjects completed the HADS 14-item questionnaire with 7 items for anxiety (HADS-A) and 7 items for depression (HADS-D).

[3] = system: adult subjects with moderate to severe AA; assay: Phase III trial: Clinical Global Impression of Improvement (CGI-I); type: in vivo, human; settings: non-missing data
Protocol: The CGI-I was assessed by the investigator. Compared to the subject's alopecia areata prior to treatment at baseline, the subject's current state of alopecia areata was assessed according to the investigator's perceived change. The investigator selected 1 of 7 numeric choices representing “Very Much Worse” to “Very Much Improved.” To reduce variability, 1 rater was to perform the CGI-I assessment for the subject for the duration of the study.
as §1, §2, §3
Subjects with responses of “very much improved” or “much improved” were considered CGI-I responders. […] Detailed data are described below. At each visit, the percentage of CGI-I responders (non-missing data) was as follows: […]

plasma protein = assay: Plasma protein binding of CTP-543 at 2 hours post-dose (renal impairment study); type: in vitro ADME, human; settings: moderate renal impairment vs matched controls with normal renal function
Source text: All subjects had samples collected for PK.

[2H]C1([2H])C([C@@H](CC#N)n2cc(-c3ncnc4[nH]ccc34)cn2)C([2H])([2H])C([2H])([2H])C1([2H])[2H] [CTP-543, (R)-3-(4-(7H-pyrrolo[2,3-d]pyrimidin-4-yl)-1H-pyrazol-1-yl)-3-(cyclopentyl-2,2,3,3,4,4,5,5-d8) propanenitrile]
QPRO satisfaction with evenness of hair coverage, treatment group difference from placebo ([1]; 8 mg BID): −1.3 to −0.9 | QPRO satisfaction with eyebrows, treatment group difference from placebo ([1]; 8 mg BID): −1.2 to −1.0 | QPRO satisfaction with eyelashes, treatment group difference from placebo ([1]; 8 mg BID): −1.2 to −0.9 | QPRO satisfaction with thickness of hair coverage, treatment group difference from placebo ([1]; 8 mg BID): −1.3 to −1.0 | QPRO satisfaction with evenness of hair coverage, treatment group difference from placebo ([1]; 12 mg BID): −1.5 to −1.0 | QPRO satisfaction with eyebrows, treatment group difference from placebo ([1]; 12 mg BID): −1.5 to −1.1 | QPRO satisfaction with eyelashes, treatment group difference from placebo ([1]; 12 mg BID): −1.4 to −0.9 | QPRO satisfaction with thickness of hair coverage, treatment group difference from placebo ([1]; 12 mg BID): −1.6 to −1.1 | HADS anxiety scale, LS mean change from baseline ([2]; 8 mg BID): −1.1 | HADS anxiety scale, LS mean treatment group difference from placebo ([2]; 8 mg BID): 0.5 | HADS depression scale, LS mean change from baseline ([2]; 8 mg BID): −1.2 | HADS depression scale, LS mean treatment group difference from placebo ([2]; 8 mg BID): 0.8 | HADS anxiety scale, LS mean change from baseline ([2]; 12 mg BID): −0.9 | HADS anxiety scale, LS mean treatment group difference from placebo ([2]; 12 mg BID): 0.2 | HADS depression scale, LS mean change from baseline ([2]; 12 mg BID): −1.5 | HADS depression scale, LS mean treatment group difference from placebo ([2]; 12 mg BID): 1.1 | subjects achieving a ≥3-point improvement in the HADS-D score ([2]; baseline to Week 24, 8 mg BID): 26.2% | subjects achieving a ≥4-point improvement in the HADS-A score ([2]; baseline to Week 24, 8 mg BID): 18.9% | percentage of CGI-I responders (very much improved or much improved) ([3]; Week 24, 8 mg BID): 54.1% | percentage of CGI-I responders (very much improved or much improved) ([3]; Week 24, 12 mg BID): 61.7% | percentage of CGI-I responders (very much improved or much improved) ([3]; week 12, 8 mg BID): 38.0% | percentage of CGI-I responders (very much improved or much improved) ([3]; week 12, 12 mg BID): 44.3% | percentage of CGI-I responders (very much improved or much improved) ([3]; week 16, 8 mg BID): 45.0% | percentage of CGI-I responders (very much improved or much improved) ([3]; week 16, 12 mg BID): 52.0% | percentage of CGI-I responders (very much improved or much improved) ([3]; week 20, 8 mg BID): 50.0% | percentage of CGI-I responders (very much improved or much improved) ([3]; week 20, 12 mg BID): 9.0% | differences in plasma protein binding between cohorts (plasma protein): no meaningful differences
